# Reference: patent US20110184188A1, “Insecticidal Benzenedicarboxamide Derivative” (priority 2008, published 2011)
# Assay: logP(acid) by reverse phase (C18) chromatography at pH 2.3
# Format: physicochemical
# Conditions: reverse phase (C18) chromatography at pH 2.3
row,Structure (SMILES),logP (acid)
1,CSC[C@H](C)NC(=O)c1c(Br)cccc1C(=O)Nc1ccc(Cn2nc(C(F)F)c(Cl)c2C(F)F)nc1C [13-126],logP (acid) 3.28
2,CSC[C@H](C)NC(=O)c1c(Br)cccc1C(=O)Nc1ccc(Cn2cc(C(F)(F)C(F)(F)F)c(C(F)(F)C(F)(F)F)n2)nc1C [13-134],logP (acid) 4.35
3,CSC[C@H](C)NC(=O)c1c(Br)cccc1C(=O)Nc1ccc(Cn2nc(C(F)(F)C(F)(F)F)cc2C(F)(F)F)nc1C [13-135],logP (acid) 4.30
4,Cc1nc(Cn2nc(C(F)(F)C(F)(F)C(F)(F)F)cc2C(F)(F)F)ccc1NC(=O)c1cccc(Br)c1C(=O)N[C@@H](C)C[S+](C)[O-] (some centres unmarked) [13-136],logP (acid) 3.08
5,Cc1nc(Cn2cc(C(F)(F)C(F)(F)F)c(C(F)(F)C(F)(F)F)n2)ccc1NC(=O)c1cccc(Br)c1C(=O)N[C@@H](C)C[S+](C)[O-] (some centres unmarked) [13-138],logP (acid) 3.03
6,Cc1nc(Cn2nc(C(F)(F)C(F)(F)C(F)(F)F)cc2C(F)(F)F)ccc1NC(=O)c1cccc(Br)c1C(=O)N[C@@H](C)CS(C)(=O)=O [13-139],logP (acid) 3.56
7,Cc1nc(Cn2cc(C(F)(F)C(F)(F)F)c(C(F)(F)C(F)(F)F)n2)ccc1NC(=O)c1cccc(Br)c1C(=O)N[C@@H](C)CS(C)(=O)=O [13-141],logP (acid) 3.52
8,CSC[C@H](C)NC(=O)c1c(I)cccc1C(=O)Nc1ccc(Cn2nc(C(F)F)c(Cl)c2C(F)F)nc1C [13-145],logP (acid) 3.34
9,CSC[C@H](C)NC(=O)c1c(I)cccc1C(=O)Nc1ccc(Cn2cc(C(F)(F)C(F)(F)F)c(C(F)(F)C(F)(F)F)n2)nc1C [13-156],logP (acid) 4.46
10,CSC[C@H](C)NC(=O)c1c(I)cccc1C(=O)Nc1ccc(Cn2nc(C(F)(F)C(F)(F)F)cc2C(F)(F)F)nc1C [13-157],logP (acid) 4.39
11,CSC[C@H](C)NC(=O)c1c(Cl)cccc1C(=O)Nc1cnc(Cn2nc(C(F)(F)F)cc2C(F)(F)F)cc1C [13-175],logP (acid) 3.52
12,CSC[C@H](C)NC(=O)c1c(Br)cccc1C(=O)Nc1cnc(Cn2nc(C(F)(F)F)cc2C(F)(F)F)cc1C [13-178],logP (acid) 3.59
13,CSC[C@H](C)NC(=O)c1c(I)cccc1C(=O)Nc1cnc(Cn2nc(C(F)(F)F)cc2C(F)(F)F)cc1C [13-181],logP (acid) 3.67
14,Cc1nc(Cn2nc(C(F)(F)C(F)(F)F)cc2C(F)(F)F)ccc1NC(=O)c1cccc(Cl)c1C(=O)N[C@@H](C)CS(C)(=O)=O [13-186],logP (acid) 3.12
15,Cc1nc(Cn2nc(C(F)(F)C(F)(F)F)cc2C(F)(F)F)ccc1NC(=O)c1cccc(Br)c1C(=O)N[C@@H](C)CS(C)(=O)=O [13-187],logP (acid) 3.19
16,Cc1nc(Cn2nc(C(F)(F)C(F)(F)F)cc2C(F)(F)F)ccc1NC(=O)c1cccc(I)c1C(=O)N[C@@H](C)CS(C)(=O)=O [13-189],logP (acid) 3.27

# Same assay, conditions: reverse phase (C18) chromatography, pH 2.3
row,Structure (SMILES),logP (acid)
1,Cc1cc(Cn2nc(C(F)(F)F)cc2C(F)(F)F)ccc1NC(=O)c1cccc(Cl)c1C(=O)NC(C)CN(C)C (centres unmarked) [13-191],logP (acid) 1.81
2,Cc1cc(Cn2nc(C(F)(F)F)cc2C(F)(F)F)ccc1NC(=O)c1c(Cl)cccc1C(=O)NCC#N [13-198],logP (acid) 3.32
3,CSC[C@H](C)NC(=O)c1c(Cl)cccc1C(=O)Nc1ccc(Cn2nc(C(F)(F)F)cc2N)cc1C [13-200],logP (acid) 2.31
4,CCOC(=O)c1cn(Cc2ccc(NC(=O)c3cccc(Cl)c3C(=O)N[C@@H](C)CSC)c(C)c2)nc1C(F)(F)F [13-202],logP (acid) 3.43
5,CSC[C@H](C)NC(=O)c1c(Cl)cccc1C(=O)Nc1ccc(Cn2cc(C(=O)C(F)(F)C(F)(F)F)c(C(F)(F)C(F)(F)F)n2)cc1C [13-205],logP (acid) 4.46
6,CSC[C@H](C)NC(=O)c1c(Cl)cccc1C(=O)Nc1ccc(Cn2cc(C(=O)N(C)C)c(C(F)(F)F)n2)cc1C [13-207],logP (acid) 2.56
7,CSC[C@H](C)NC(=O)c1c(Cl)cccc1C(=O)Nc1ccc(Cn2cc(C(=O)NC(C)C(F)(F)F)c(C(F)(F)F)n2)cc1C (some centres unmarked) [13-208],logP (acid) 3.25
8,CSC[C@H](C)NC(=O)c1c(Cl)cccc1C(=O)Nc1ccc(Cn2cc(C(=O)NC(C)C)c(C(F)(F)F)n2)cc1C [13-209],logP (acid) 2.87
9,CSC[C@H](C)NC(=O)c1c(Cl)cccc1C(=O)Nc1ccc(Cn2cc(C(=O)NCC(F)(F)F)c(C(F)(F)F)n2)cc1C [13-210],logP (acid) 3.05
10,CSC[C@H](C)NC(=O)c1c(Cl)cccc1C(=O)Nc1ccc(Cn2cc(C(=O)Nc3cc(C(F)(F)F)cc(C(F)(F)F)c3)c(C(F)(F)F)n2)cc1C [13-211],logP (acid) 4.55
11,CSC[C@H](C)NC(=O)c1c(Cl)cccc1C(=O)Nc1ccc(Cn2nc(C(F)(F)C(F)(F)F)cc2C(=O)C(F)(F)F)cc1C [13-220],logP (acid) 3.52
12,CSC[C@H](C)NC(=O)c1c(Cl)cccc1C(=O)Nc1ccc(Nc2c(C(F)(F)F)c(C(F)(F)C(F)(F)F)nn2C)nc1C [13-226],logP (acid) 3.64
13,CSC[C@H](C)NC(=O)c1c(Cl)cccc1C(=O)Nc1ccc(Nc2c(SC(F)(F)F)c(C(F)(F)F)nn2-c2c(Cl)cc(C(F)(F)F)cc2Cl)nc1C [13-227],logP (acid) 5.09
14,CSC[C@H](C)NC(=O)c1c(Cl)cccc1C(=O)Nc1ccc(Oc2cc(C(F)(F)F)n(C)n2)nc1C [13-228],logP (acid) 2.98
15,CSC[C@H](C)NC(=O)c1c(Cl)cccc1C(=O)Nc1ccc(C(=O)c2cc(C(F)(F)C(F)(F)F)n[nH]2)cc1C [13-229],logP (acid) 3.4
16,CSC[C@H](C)NC(=O)c1c(Cl)cccc1C(=O)Nc1ccc(Cc2cc(C(F)(F)C(F)(F)F)n[nH]2)cc1C [13-230],logP (acid) 3.29
17,CSC[C@H](C)NC(=O)c1c(Cl)cccc1C(=O)Nc1ccc(Cn2nc(C(F)(F)F)cc2C(F)(F)F)nc1Cl [13-232],logP (acid) 3.97
18,CSC[C@H](C)NC(=O)c1cc(Cl)c(Cl)cc1C(=O)Nc1ccc(Cn2nc(C(F)(F)F)cc2C(F)(F)F)nc1C [13-238],logP (acid) 3.74
19,CSC[C@H](C)NC(=O)c1c(I)cccc1C(=O)Nc1ccc(Cn2nc(C(F)(F)F)cc2C(F)(F)C(F)(F)F)nc1C [13-239],logP (acid) 4.27

row,Structure (SMILES),logP (acid)
1,Cc1nc(Cn2nc(C(F)(F)F)cc2C(F)(F)F)ccc1NC(=O)c1c(Cl)cccc1C(=O)NC1CCS(=O)(=O)C1 (centres unmarked) [13-276],logP (acid) 3.28
2,CCC(CC#N)NC(=O)c1c(Cl)cccc1C(=O)Nc1ccc(Cn2nc(C(F)(F)F)cc2C(F)(F)F)cc1C (centres unmarked) [13-277],logP (acid) 3.42
3,Cc1nc(Cn2nc(C(F)(F)F)cc2C(F)(F)F)ccc1NC(=O)c1c(Cl)cccc1C(=O)NC1=NN(c2ccccc2)C(=O)C1 [13-281],logP (acid) 4.41
4,Cc1nc(Cn2nc(C(F)(F)F)cc2C(F)(F)F)ccc1NC(=O)c1c(Cl)cccc1C(=O)NC(C)CN(C)C (centres unmarked) [13-283],logP (acid) 2.4
5,CCN(CC)CC(C)NC(=O)c1cccc(Cl)c1C(=O)Nc1ccc(Cn2nc(C(F)(F)F)cc2C(F)(F)F)nc1C (centres unmarked) [13-285],logP (acid) 2.53
6,CSC[C@H](C)NC(=O)c1c(C(=O)Nc2ccc(Cn3nc(C(F)(F)F)cc3C(F)(F)F)nc2C)cccc1S(C)(=O)=O [13-286],logP (acid) 3.21
7,Cc1nc(Cn2nc(C(F)(F)F)cc2C(F)(F)F)ccc1NC(=O)c1cccc(S(=O)(=O)N(C)C)c1C(=O)N[C@@H](C)CS(C)(=O)=O [13-289],logP (acid) 2.75
8,CSC[C@H](C)NC(=O)c1c(C(=O)Nc2ccc(Cn3cc(C(F)(F)C(F)(F)F)c(C(F)(F)C(F)(F)F)n3)nc2C)cccc1S(C)(=O)=O [13-290],logP (acid) 3.80
9,CSC[C@H](C)NC(=O)c1c(SC)cccc1C(=O)Nc1ccc(Cn2nc(C(F)(F)C(F)(F)F)c(C(F)(F)F)c2F)cc1C [13-308],logP (acid) 4.43
10,CSC[C@H](C)NC(=O)c1c(SC)cccc1C(=O)Nc1ccc(Cn2nc(C(F)(F)C(F)(F)F)cc2C(F)(F)F)cc1C [13-310],logP (acid) 4.74
11,CSC[C@H](C)NC(=O)c1c(C(=O)Nc2ccc(Cn3nc(C(F)(F)C(F)(F)F)cc3C(F)(F)F)cc2C)cccc1S(C)(=O)=O [13-311],logP (acid) 4.20
12,CSC[C@H](C)NC(=O)c1c(SC)cccc1C(=O)Nc1ccc(Cn2nc(C(F)(F)C(F)(F)F)cc2C(=O)C(F)(F)F)cc1C [13-325],logP (acid) 3.50
13,CSC[C@H](C)NC(=O)c1c(SC)cccc1C(=O)Nc1ccc(Cn2nc(C(F)(F)C(F)(F)F)cc2C(F)(F)C(F)(F)F)nc1C [13-342],logP (acid) 4.45
14,CSc1cccc(C(=O)Nc2ccc(Cn3nc(C(F)(F)C(F)(F)F)cc3C(F)(F)F)nc2C)c1C(=O)N[C@@H](C)C[S+](C)[O-] (some centres unmarked) [13-343],logP (acid) 2.78
15,CCS(=O)(=O)c1cccc(C(=O)Nc2ccc(Cn3nc(C(F)(F)F)cc3C(F)(F)F)cc2C)c1C(=O)N[C@@H](C)CSC [13-346],logP (acid) 3.74
16,Cc1cc(Cn2nc(C(F)(F)F)cc2C(F)(F)F)ccc1NC(=O)c1cccc(S(=O)(=O)N(C)C)c1C(=O)N[C@@H](C)CS(C)(=O)=O [13-349],logP (acid) 3.07
17,CSC[C@H](C)NC(=O)c1c(Cl)cccc1C(=O)Nc1ccc(N(C)c2c(C(F)(F)F)c(C(F)(F)C(F)(F)F)nn2C)nc1C [13-353],logP (acid) 4.19
18,Cc1nc(N(C)c2c(C(F)(F)F)c(C(F)(F)C(F)(F)F)nn2C)ccc1NC(=O)c1cccc(Cl)c1C(=O)N[C@@H](C)C[S+](C)[O-] (some centres unmarked) [13-354],logP (acid) 2.91
